This is an account of results in paper doi:10.1101/2025.10.08.681114v1 (biorxiv, 2025).

Usually Kd stands for the free concentration of one partner at which half of the binding sites on the other are occupied at equilibrium, for simple one-to-one binding. A higher Kd goes with a looser complex.

The test addresses CHI3L1 (hCHI3L1, CHI3L1-His, YKL-40) (Homo sapiens, UniProt P36222). Briefly: microscale thermophoresis dose-response. It counts as binding. Background: Microscale thermophoresis detects binding through changes in fluorescence in a small temperature gradient.

Sequence of CHI3L1 (hCHI3L1, CHI3L1-His, YKL-40) (P36222 22-383): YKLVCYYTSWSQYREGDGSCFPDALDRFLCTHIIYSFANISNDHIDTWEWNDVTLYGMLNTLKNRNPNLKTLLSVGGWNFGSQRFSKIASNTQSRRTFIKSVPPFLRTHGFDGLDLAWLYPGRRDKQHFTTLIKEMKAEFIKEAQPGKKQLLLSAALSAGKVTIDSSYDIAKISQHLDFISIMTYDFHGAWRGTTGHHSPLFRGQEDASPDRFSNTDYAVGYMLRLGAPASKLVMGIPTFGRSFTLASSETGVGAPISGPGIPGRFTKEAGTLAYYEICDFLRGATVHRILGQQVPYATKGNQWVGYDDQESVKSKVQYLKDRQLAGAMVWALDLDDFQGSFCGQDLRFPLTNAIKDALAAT

For `COc1cc2cc(C3CCN(C(=O)c4csc(C)c4)CC3)ncc2cc1C` [A9, compound A9], binding was characterised by a dissociation constant (Kd) of 182 ± 18 µM.
